Test systems include HCT-116 colon; HOP-62 NSCLC; IGROV1 ovarian; LOX IMVI melanoma; MALME-3M melanoma; MDA-N; NCI-H460 lung; OVCAR-5 ovarian; RPMI-8226 leukemia; SNB-75 CNS.
Common to all, as to assay: NCI anticancer screen, dose series, 48 h

13 molecules from PubChem BioAssay (NCI) can be followed below.

The structures appear in SMILES notation.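 A five-concentration, 48-hour dose response in 96-well plates underlies each endpoint, interpolated linearly between surrounding concentrations. Definition used: TGI = concentration required for complete inhibition of growth.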

For `CC1CCC2c3c([nH]c4ccccc34)C3C(=O)N(C4CCCCC4)C(=O)C3C2C1` (stereo not given), the TGI in the assay on HCT-116 colon is 24.2 µM; with HOP-62 NSCLC it was 32.7 µM; with IGROV1 ovarian, 43.9 µM; in the assay with LOX IMVI melanoma it was greater than 100 µM; with MALME-3M melanoma, greater than 100 µM; with MDA-N, greater than 100 µM. The TGI is greater than 100 µM with NCI-H460 lung, greater than 100 µM in the assay on OVCAR-5 ovarian, greater than 100 µM in the assay with RPMI-8226 leukemia and 8.51 µM in the assay on SNB-75 CNS.
For the molecule `Cc1ccc(S(=O)(=Nc2ccccc2)C(C(C)C)C(C)(C)Cl)cc1` (stereo not given), the TGI in the assay on HCT-116 colon, with HOP-62 NSCLC, in the assay with IGROV1 ovarian, in the assay with LOX IMVI melanoma, with MALME-3M melanoma and in the assay with MDA-N was greater than 50 µM throughout. For the same molecule, the TGI with NCI-H460 lung is 45.4 µM; with OVCAR-5 ovarian it was greater than 50 µM; in the assay with RPMI-8226 leukemia, greater than 50 µM; in the assay on SNB-75 CNS, greater than 50 µM.
As to `Clc1ccc(OCC2NC3C=CC32)cn1` (stereo not given), the TGI in the assay with HCT-116 colon, in the assay on HOP-62 NSCLC, in the assay on IGROV1 ovarian, with LOX IMVI melanoma, in the assay with MALME-3M melanoma and in the assay with MDA-N was greater than 100 µM in each case. The TGI in the assay on NCI-H460 lung, in the assay on OVCAR-5 ovarian, with RPMI-8226 leukemia and in the assay on SNB-75 CNS was greater than 100 µM throughout.
As for `O=C1C=CC2(O[C@@H](Cc3ccccc3)[C@H](Cc3ccccc3)O2)C(SC(=O)c2ccccc2)C1` (stereo not given in full), the TGI was determined as 0.375 µM in the assay on HCT-116 colon; 2.68 µM in the assay on HOP-62 NSCLC; 2.54 µM in the assay on IGROV1 ovarian; 1.46 µM in the assay with LOX IMVI melanoma; 5.06 µM with MALME-3M melanoma; 5.22 µM with MDA-N. Also, the TGI in the assay on NCI-H460 lung was found to be 9.56 µM; in the assay with OVCAR-5 ovarian it was 1.74 µM; in the assay with RPMI-8226 leukemia, 1.24 µM; with SNB-75 CNS it was 3.41 µM.
As for `COc1cc2c3c(cc(Cl)nc3c1OC)C(O)(CC(C)=O)C(=O)N2` (stereo not given), the TGI with HCT-116 colon is 31.3 µM; in the assay with HOP-62 NSCLC it was greater than 59.8 µM; with IGROV1 ovarian, 36.6 µM; with LOX IMVI melanoma it was 34.8 µM; with MALME-3M melanoma, 29.8 µM; with MDA-N, 31.1 µM. The TGI in the assay on NCI-H460 lung was greater than 89.6 µM; with OVCAR-5 ovarian, greater than 56.4 µM; in the assay on RPMI-8226 leukemia, greater than 78.6 µM; with SNB-75 CNS it was greater than 55.9 µM.
Regarding `[N-]=[N+]=C1CNC(=O)NC1=O`, the TGI in the assay on HCT-116 colon, with HOP-62 NSCLC, with IGROV1 ovarian, with LOX IMVI melanoma, with MALME-3M melanoma and in the assay with MDA-N was greater than 100 µM throughout. Besides, the TGI in the assay on NCI-H460 lung, in the assay on OVCAR-5 ovarian, in the assay with RPMI-8226 leukemia and with SNB-75 CNS was greater than 100 µM throughout.
Consider `N#CC1N(C(=O)c2ccc(F)cc2)c2ccccc2N1C(=O)c1ccc(F)cc1`, for which the TGI in the assay with HCT-116 colon, with HOP-62 NSCLC, with IGROV1 ovarian, with LOX IMVI melanoma, in the assay on MALME-3M melanoma and with MDA-N was greater than 100 µM in each case. Moreover, the TGI in the assay on NCI-H460 lung was greater than 100 µM; in the assay on OVCAR-5 ovarian, greater than 100 µM; in the assay with RPMI-8226 leukemia, 75.4 µM; in the assay on SNB-75 CNS, greater than 100 µM.
On to `COC(=O)c1ccc(C)cc1C1CN=NC12Cc1cc(C)c(C)cc1C2=O` (stereo not given), for which the TGI with HCT-116 colon, with HOP-62 NSCLC, in the assay on IGROV1 ovarian, in the assay with LOX IMVI melanoma, with MALME-3M melanoma and in the assay on MDA-N was greater than 100 µM in each case. Further, the TGI with NCI-H460 lung, in the assay with OVCAR-5 ovarian, in the assay on RPMI-8226 leukemia and in the assay with SNB-75 CNS was greater than 100 µM throughout.
In the case of `CC(/C=N/NC1=NCCCCN1)=N\NC1=NCCCCN1`, the TGI in the assay on HCT-116 colon is greater than 100 µM; in the assay with HOP-62 NSCLC, greater than 100 µM; in the assay with IGROV1 ovarian, greater than 100 µM; with LOX IMVI melanoma, greater than 100 µM; in the assay with MALME-3M melanoma it was 84 µM; in the assay with MDA-N, greater than 100 µM. Also, the TGI in the assay on NCI-H460 lung, with OVCAR-5 ovarian, in the assay with RPMI-8226 leukemia and with SNB-75 CNS was greater than 100 µM throughout.
For the molecule `CC(C)OC(=O)c1ccc(CCC2=CC(=O)C(Br)=CC2=O)cc1`, the TGI turned out to be 30.6 µM in the assay with HCT-116 colon; 63.1 µM with HOP-62 NSCLC; 27.8 µM in the assay on IGROV1 ovarian; 30.8 µM in the assay on LOX IMVI melanoma; 29.1 µM with MALME-3M melanoma; 30.9 µM with MDA-N. Also, the TGI in the assay with NCI-H460 lung stood at 46.6 µM; with OVCAR-5 ovarian, 42.1 µM; in the assay on RPMI-8226 leukemia it was 43.3 µM; in the assay on SNB-75 CNS it was 32.5 µM.
As to `O=C1c2ccccc2C(=O)N1C(=S)c1ccccc1`, the TGI in the assay with HCT-116 colon, with HOP-62 NSCLC, in the assay on IGROV1 ovarian, in the assay on LOX IMVI melanoma, with MALME-3M melanoma and with MDA-N was greater than 100 µM throughout. The TGI in the assay on NCI-H460 lung, in the assay on OVCAR-5 ovarian, with RPMI-8226 leukemia and in the assay on SNB-75 CNS was greater than 100 µM throughout.
For the molecule `CC1(C)Oc2ccc(Cl)cc2C12CC2`, the TGI in the assay on HCT-116 colon turned out to be 29 µM; in the assay on HOP-62 NSCLC, 37.7 µM; in the assay on IGROV1 ovarian it was 28.7 µM; in the assay on LOX IMVI melanoma, 30.9 µM; with MALME-3M melanoma, 43.2 µM; with MDA-N, 35.9 µM. Also, the TGI is 39.7 µM with NCI-H460 lung, 34.2 µM with OVCAR-5 ovarian, greater than 100 µM with RPMI-8226 leukemia and 32.3 µM in the assay with SNB-75 CNS.
For the molecule `CC(O)(c1ccccc1)c1nccc2ccccc12` (stereo not given), the TGI in the assay on HCT-116 colon is greater than 100 µM; in the assay with HOP-62 NSCLC it was greater than 100 µM; in the assay with IGROV1 ovarian, greater than 100 µM; in the assay with LOX IMVI melanoma, greater than 100 µM; in the assay with MALME-3M melanoma it was greater than 100 µM; in the assay with MDA-N, 53.7 µM. The TGI with NCI-H460 lung, with OVCAR-5 ovarian, in the assay on RPMI-8226 leukemia and in the assay with SNB-75 CNS was greater than 100 µM each time.
